Earlier results in PMC13363528, “Structure–Activity Relationships of Pyrrolyl-Containing Diketo Acid and Non-Diketo Acid Derivatives as Inhibitors of SARS-CoV-2 nsp13-Associated Activities” (Molecules, 2026).

Target: SARS-CoV-2 nsp13 (Severe acute respiratory syndrome coronavirus 2, UniProt P0DTD1)
Details: without BSA/TCEP; read-out: IC50 Unwinding

O=c1c(O)c(-c2ccc(O)cc2)oc2cc(O)cc(O)c12 [Kaempferol]
IC50: 760 ± 160 nM
